Experimental data taken from patent US20230167127A1, “COMPOUNDS AND THEIR USE IN THE TREATMENT OF BACTERIAL INFECTION” (Hoffmann-La Roche Inc., priority 2020, published 2023).
Structures can show the parent of a compound that is named as a salt.

Test system: Escherichia coli ATCC 25922
Assay: 50% growth inhibitory concentration (IC50) determination, Iso-Sensitest broth dilution
Format: cell-based
Conditions: Escherichia coli, ATCC25922, 16 h, strain Escherichia coli ATCC 25922; 10-point broth dilution, optical density at 600 nm over 16 h; read-out: Escherichia coli growth inhibition IC50
Procedure, shortened: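 Growth was tracked as optical density at 600 nm every 20 minutes for 16 h at 35±2° C. Compounds from DMSO stocks were serially diluted twofold over 10 points (e.g. 50–0.097 μM final) in Iso-Sensitest broth. Inhibition computed in log-phase growth to give IC50.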

Row | SMILES | IC50 [nM]
1 | CNC(=O)C(N)COc1cc(F)c2c(c1)CC(CNCCC1CN(c3ccc4c(n3)NC(=O)CO4)C(=O)O1)C2 (stereo not shown) [Example 255, 2-Amino-3-[[7-fluoro-2-[[2-[2-oxo-3-(3-oxo-4H-pyrido[3,2-b][1,4]oxazin-6-yl)-1,3-oxazolidin-5-yl]ethylamino]methyl]-2,3-dihydro-1H-inden-5-yl]oxy]-N-methylpropanamide; formic acid] | 180
2 | NC1c2cccc(Cl)c2CC1CNCCCC1CN(c2ccc3c(n2)NC(=O)CO3)C(=O)O1 (racemic) [Example 227, 6-[2-Oxo-5-[3-[[rac-1,2-trans-1-amino-4-chloro-2,3-dihydro-1H-inden-2-yl]methylamino]propyl]-1,3-oxazolidin-3-yl]-4H-pyrido[3,2-b][1,4]oxazin-3-one] | 132
3 | N[C@@H]1c2cccc(Cl)c2C[C@H]1CNCC[C@@H]1CN(c2cnc3c(n2)NC(=O)CO3)C(=O)O1 [Example 422, 6-[(5R)-5-[2-[[(1S,2S)-1-Amino-4-chloro-2,3-dihydro-1H-inden-2-yl]methylamino]ethyl]-2-oxo-1,3-oxazolidin-3-yl]-4H-pyrazino[2,3-b][1,4]oxazin-3-one] | < 97.7
4 | NC1c2cccc(Cl)c2CC1CNCCc1nn(-c2ccc3c(n2)NC(=O)CO3)c(=O)o1 (racemic) [Example 153, 6-[5-[2-[(rac-1,2-trans-1-amino-4-chloro-2,3-dihydro-1H-inden-2-yl)methylamino]ethyl]-2-oxo-1,3,4-oxadiazol-3-yl]-4H-pyrido[3,2-b][1,4]oxazin-3-one] | 198
5 | Cc1ncc(F)c2c1CC(CNCCC1(C)CN(c3cnc4c(n3)NC(=O)CO4)C(=O)O1)C2 (stereo not shown) [Example 340, 6-[5-[2-[(4-fluoro-1-methyl-6,7-dihydro-5H-cyclopenta[e]pyridin-6-yl)methylamino]ethyl]-5-methyl-2-oxo-1,3-oxazolidin-3-yl]-4H-pyrazino[2,3-b][1,4]oxazin-3-one] | 358
6 | Cc1ncc(F)c2c1CC(CN1CCC3(CN(c4ccc5c(n4)NC(=O)CO5)C(=O)O3)C(CO)C1)C2 (stereo not shown) [Example 277, 6-[8-[(4-fluoro-1-methyl-6,7-dihydro-5H-cyclopenta[c]pyridin-6-yl)methyl]-6-(hydroxymethyl)-2-oxo-1-oxa-3,8-diazaspiro[4.5]decan-3-yl]-4H-pyrido[3,2-b][1,4]oxazin-3-one] | 628
7 | Cc1nc(OCCCN)c(C)c2c1CC(CNCCC1CN(c3ccc4c(n3)NC(=O)CO4)C(=O)O1)C2 (stereo not shown) [Example 176, 6-[5-[2-[[3-(3-aminopropoxy)-1,4-dimethyl-6,7-dihydro-5H-cyclopenta[c]pyridin-6-yl]methylamino]ethyl]-2-oxo-1,3-oxazolidin-3-yl]-4H-pyrido[3,2-b][1,4]oxazin-3-one] | 483
8 | NC1(COc2cc(F)c3c(c2)CC(CNCCC2CN(c4ccc5c(n4)NC(=O)CO5)C(=O)O2)C3)CC1 (stereo not shown) [Example 160, 6-[5-[2-[[6-[(1-aminocyclopropyl)methoxy]-4-fluoro-2,3-dihydro-1H-inden-2-yl]methylamino]ethyl]-2-oxo-1,3-oxazolidin-3-yl]-4H-pyrido[3,2-b][1,4]oxazin-3-one] | < 97.7
9 | Cc1ncc(F)c2c1CC(CNCCc1cn(-c3cnc4c(n3)NC(=O)CO4)c(=O)o1)C2 (stereo not shown) [Example 293, 6-[5-[2-[(4-fluoro-1-methyl-6,7-dihydro-5H-cyclopenta[c]pyridin-6-yl)methylamino]ethyl]-2-oxo-1,3-oxazol-3-yl]-4H-pyrazino[2,3-b][1,4]oxazin-3-one] | < 97.7
10 | O=C1COc2ncc(N3CC(CCNCC4Cc5cc(OC6COC6)cc(F)c5C4)OC3=O)nc2N1 (stereo not shown) [Example 323, 6-[5-[2-[[4-fluoro-6-(oxetan-3-yloxy)-2,3-dihydro-1H-inden-2-yl]methylamino]ethyl]-2-oxo-1,3-oxazolidin-3-yl]-4H-pyrazino [2,3-b] [1,4]oxazin-3-one] | 250
11 | Cc1ncc(F)c2c1CC(NCC(O)CC1CN(c3cnc4c(n3)NC(=O)CO4)C(=O)O1)C2 (single isomer, unassigned; isomer a) [Example 313, 6-[2-Oxo-5-[3-[(4-fluoro-1-methyl-6,7-dihydro-5H-cyclopenta[c]pyridin-6-yl)amino]-2-hydroxypropyl]-1,3-oxazolidin-3-yl]-4H-pyrazino[2,3-b][1,4]oxazin-3-one; formic acid, Isomer A] | 1900
12 | O=C1COc2ccc(N3CC([C@H]4C[C@@H](NC5Cc6cccc(Cl)c6C5)C4)OC3=O)nc2N1 (stereo partly drawn) [Example 16, 6-[5-[cis-3-[(4-chloro-2,3-dihydro-1H-inden-2-yl)amino]cyclobutyl]-2-oxo-1,3-oxazolidin-3-yl]-4H-pyrido[3,2-b][1,4]oxazin-3-one; formic acid] | 840
13 | CNC(=O)COc1cc(C)c2c(c1C)CC(CNCCC1CN(c3ccc4c(n3)NC(=O)CO4)C(=O)O1)C2 (stereo not shown) [Example 112, 2 2-[[4,7-dimethyl-2-[[2-[2-oxo-3-(3-oxo-4H-pyrido[3,2-b][1,4]oxazin-6-yl)-1,3-oxazolidin-5-yl]ethylamino]methyl]-2,3-dihydro-1H-inden-5-yl]oxy]-N-methylacetamide] | 303
14 | Cc1nnc(C)c2c1CC(CNCCC1CN(c3cnc4c(n3)NC(=O)CO4)C(=O)O1)C2 (stereo not shown) [Example 283, 6-[5-[2-[(1,4-dimethyl-6,7-dihydro-5H-cyclopenta[d]pyridazin-6-yl)methylamino]ethyl]-2-oxo-1,3-oxazolidin-3-yl]-4H-pyrazino[2,3-b][1,4]oxazin-3-one] | 888
15 | O=C1COc2ncc(N3CC(CCNCC4Cc5cc(OCC(=O)N6CCC6)cc(F)c5C4)OC3=O)nc2N1 (stereo not shown) [Example 307, 6-[5-[2-[[6-[2-(azetidin-1-yl)-2-oxoethoxy]-4-fluoro-2,3-dihydro-1H-inden-2-yl]methylamino]ethyl]-2-oxo-1,3-oxazolidin-3-yl]-4H-pyrazino[2,3-b][1,4]oxazin-3-one; formic acid] | 359
16 | N#Cc1nc(OCC2(N)CC2)cc2c1CC(CNCCC1CN(c3ccc4c(n3)NC(=O)CO4)C(=O)O1)C2 (stereo not shown) [Example 125] | 111
17 | Cc1ncnc2c1CC(CNCCC1CN(c3ccc4c(n3)NC(=O)CO4)C(=O)O1)C2 (stereo not shown) [Example 421, 6-[5-[2-[(4-methyl-6,7-dihydro-5H-cyclopenta[d]pyrimidin-6-yl)methylamino]ethyl]-2-oxo-1,3-oxazolidin-3-yl]-4H-pyrido[3,2-b][1,4] oxazin-3-one] | 618
18 | N#Cc1cccc2c1CC(NCC(O)CC1CN(c3ccc4c(n3)NC(=O)CO4)C(=O)O1)C2 (stereo not shown) [Example 238, 2-[[2-Hydroxy-3-[2-oxo-3-(3-oxo-4H-pyrido[3,2-b][1,4]oxazin-6-yl)-1,3-oxazolidin-5-yl]propyl]amino]-2,3-dihydro-1H-indene-4-carbonitrile hydrochloride] | 170

Now from value to molecule:

Row | IC50 [nM] | SMILES
19 | 378 | Cc1c(OCC2CCN2)ncc2c1CC(CNCCC1CN(c3ccc4c(n3)NC(=O)CO4)C(=O)O1)C2 (stereo in doubt) [Example 219, 6-[5-[2-[[4-methyl-3-[[(2R)-azetidin-2-yl]methoxy]-6,7-dihydro-5H-cyclopenta[c]pyridin-6-yl]methylamino]ethyl]-2-oxo-1,3-oxazolidin-3-yl]-4H-pyrido[3,2-b][1,4]oxazin-3-one]
20 | < 97.7 | CNC(=O)COc1cc(F)c2c(c1F)CC(CNCCC1CN(c3ccc4c(n3)NC(=O)CO4)C(=O)O1)C2 (stereo not shown) [Example 394, 2-[[4,7-difluoro-2-[[2-[2-oxo-3-(3-oxo-4H-pyrido[3,2-b][1,4]oxazin-6-yl)-1,3-oxazolidin-5-yl]ethylamino]methyl]-2,3-dihydro-1H-inden-5-yl]oxy]-N-methylacetamide]
21 | 717 | Cc1c(OCC(=O)NC(C)C)nc(C#N)c2c1CC(CNCCC1CN(c3ccc4c(n3)NC(=O)CO4)C(=O)O1)C2 (stereo not shown) [Example 222, 2-((1-cyano-4-methyl-6-(((2-(2-oxo-3-(3-oxo-3,4-dihydro-2H-pyrido[3,2-b][1,4]oxazin-6-yl)oxazolidin-5-yl)ethyl)amino)methyl)-6,7-dihydro-5H-cyclopenta[c]pyridin-3-yl)oxy)-N-isopropylacetamide]
22 | < 97.7 | CC(N)COc1cc(C#N)c2c(c1)CC(CNCCC1CN(c3ccc4c(n3)NC(=O)CO4)C(=O)O1)C2 (stereo not shown) [Example 192, 6-(2-aminopropoxy)-2-[[2-[2-oxo-3-(3-oxo-4H-pyrido[3,2-b][1,4]oxazin-6-yl)-1,3-oxazolidin-5-yl]ethylamino]methyl]-2,3-dihydro-1H-inclene-4-carbonitrile; 2,2,2-trifluoroacetic acid]
23 | 157 | Cc1ncc(F)c2c1CC(CN[C@H]1C[C@@H](C3CN(c4cnc5c(n4)NC(=O)CO5)C(=O)O3)C1)C2 (stereo partly shown) [Example 362]
24 | 170 | CS(=O)(=O)CCOc1cc(F)c2c(c1)CC(CNCCC1CN(c3cnc4c(n3)NC(=O)CO4)C(=O)O1)C2 (stereo not shown) [Example 353, 6-[5-[2-[[4-fluoro-6-(2-methylsulfonylethoxy)-2,3-dihydro-1H-inden-2-yl]methylamino]ethyl]-2-oxo-1,3-oxazolidin-3-yl]-4H-pyrazino[2,3-b][1,4]oxazin-3-one; formic acid]
25 | 167 | N#Cc1cccc2c1CC(NCCNC1CC(=O)N(c3ccc4c(n3)NC(=O)CO4)C1)C2 (stereo not shown) [Example 121, 2-[2-[[5-oxo-1-(3-oxo-4H-pyrido[3,2-b][1,4]oxazin-6-yl)pyrrolidin-3-yl]amino]ethylamino]-2,3-dihydro-1H-indene-4-carbonitrile]
26 | 369 | Cc1ncc(F)c2c1CC(N[C@H]1CC[C@@]3(CC1)CN(c1cnc4c(n1)NC(=O)CO4)C(=O)O3)C2 (stereo partly shown) [Example 298]
27 | 659 | O=C1COc2ncc(N3CC(CCNCC4Cc5cc(OCCN6C(=O)CCC6=O)cc(F)c5C4)OC3=O)nc2N1 (stereo not shown) [Example 345]
28 | < 97.7 | O=C1COc2ccc(N3CC(CCNCC4Cc5c(Cl)cccc5C4O)OC3=O)nc2N1 (racemic) [Example 230, 6-[2-Oxo-5-[2-[[rac-1,2-trans-4-chloro-1-hydroxy-2,3-dihydro-1H-inden-2-yl]methylamino]ethyl]-1,3-oxazolidin-3-yl]-4H-pyrido[3,2-b][1,4]oxazin-3-one]
